According to patent US8822419B2, “Membrane resident peptide in anti-cancer peptides causes tumor cell necrosis rather than apoptosis of cancer cells” (The Research Foundation of State University of New York, priority 2008, dated 2014):
“Also recorded” adds a separate entry of the source.

Tests used:
MiaPaCa-2 cells [1] = assay: Incubation of MiaPaCa-2 cells with peptides; cell counts by trypan blue exclusion, MTT; assay type: cell-based, human
Procedure: Duplicate sets of 6×10^6 MiaPaCa-2 cells were incubated with different concentrations of PNC-28, i.e., 5, 10, 20, 40, 80 and 160 μmol/ml. […] All incubations were carried out using a protocol identical to that described in ref. 1 (1). After the cells had been allowed to adhere to the tissue culture dish (TCD) for 24 hours the medium was removed from each TCD, and new medium containing the same or no peptide concentration was added. Medium from each TCD was removed every 24 h, and fresh medium with its respective peptide at the appropriate concentration was added. Cells were inspected daily for changes in cell growth, morphology, and viability. At the end of each day over a five-day period, duplicate cell counts were performed for each incubation using the trypan blue exclusion method. In addition, cell viability was also determined by 3-[4,5-dimethylthiazol-2-yl]-2,5 diphenyl tetrazolium bromide (MTT) assay according to the manufacturers' instructions (Promega Corporation, Madison, Wis., USA).

MiaPaCa-2 cells [2] = assay: LDH release into cell culture medium (CytoTox96) as marker for necrosis; assay type: cell-based, human
Procedure: (§1) Cells from culture plates at 18, 44, 66 and 90 h time points were lysed in situ in cell lysis buffer [1% Triton X-100 in 0.05 M Tris-HCl (pH 8.0), […], 0.02% Na azide, 0.1 mg/ml phenylmethylsulfonylfluoride (PMSF), and 0.001 mg/ml Aprotinin]. Lysates were subjected to 10% SDS-PAGE followed by electrotransfer to nitrocellulose and immunoblotting with antibodies to GFP and p53 (Santa Cruz Biotechnology, Santa Cruz, Calif.). Antibody-labeled proteins were identified by chemiluminescence using ECL methodology (Amersham)(1). Assays for elevated caspase expression were performed using the Clontech (Palo Alto, Calif.) for caspase (CPP32) activity (2). As a positive control for the caspase activity assay, Mia-PaCa-2 cells were incubated with tumor necrosis factor (TNF) (Sigma, St. Louis, Mo.) at a concentration of 10 ng/ml for 24 h. In addition, to detect if significant cell necrosis occurred, the CytoTox96 assay was used (Promega, Madison, Wis.) for LDH released into the cell culture medium as performed on several breast cancer cell lines (2).

MiaPaCa-2 cells [3] = assay: Caspase (CPP32) activity assay as marker for apoptosis; assay type: cell-based, human
Procedure: as §1

MiaPaCa-2 cells [4] = assay: Time-lapse electron microscopy of MiaPaCa-2 cells treated with PNC-28; assay type: cell-based, human; conditions: 25 μmol/ml, 15 min, FIG. 4B
Procedure: Time-lapse electron microscopy (EM) was used to examine the ultrastructural features of cell death. MiaPaCa-2 cells were grown for 24 h on Thermanox cover slips (Lux Scientific), and then treated with 25 μmol of PNC-28 for 1 and 15 min, along with a corresponding control group without peptide. The cells were washed with PBS solution and then fixed with 2.5% gluteraldehyde-PBS. The fixed cultures were rinsed in a 0.1 M phosphate buffer (pH 7.3), post fixed in 2% (0.08 m) osmium tetroxide-PBS (pH 7.3), dehydrated in a graded series of ethanol and propylene oxide and embedded in Epon 812. Sections were cut at 700 Å, stained with uranyl acetate and lead citrate and examined with a Jeol JEM 1010 Electron Microscope.

MiaPaCa-2 cells [5] = assay: Immunoblotting of MiaPaCa-2 cell lysates for p53 and waf^p21, with caspase activity; assay type: cell-based, human; conditions: at near 100 percent cell death: 96 hr transfected cells, 48 hr PNC-28 75 μmol/ml, FIG. 6
Procedure: For protein analyses, and detection of apoptosis, 2×10^6 cells were seeded into 10 cm diameter TCDs and transfected with DNA: Lipofectamine 2000 proportionally adjusted to the increased area. When the cell density reached 90-100%, the cells of the experimental and sham-transfected group were detached using trypsin and plated into four new TCD's in which they were allowed to grow in complete medium. At defined time points cells were released from adherence with 10 mM EDTA in PBS and were lysed in lysing buffer [1% Triton X-100 in 0.05 M Tris-HCl (pH 8.0), […], 0.02% Na azide, 0.01 mg/ml phenylmethylsulfonylfluoride (PMSF), and 0.001 mg/ml Aprotinin]. Protein equivalents of 10^6 cells, i.e., ˜30 μg/lane, were then subjected to SDS-PAGE using 10% Tris-HCl gels and, in some experiments, 16% Tricine Peptide Gels (Biorad, Hercules, Calif.) to detect PNC-28 (−3104 Da) and p53 17-26 (−1500 Da). […] Semi-quantitation of immunoblotting results was performed by measuring luminosity of bands in a single scanned developed x-ray film, using the histogram option of Adobe Photoshop 5.5. […] Opacity of each band was calculated by the equation, Opacity=255-Luminosity-background (15). […]

cancer cells = conditions: previous studies (1-3), also in cancer cells in which p53 protein was absent; cited from earlier work
[6] = all doses over the 20-75 μmol/ml range, FIG. 4D

Question: For ETFSDLWKLLKKWKMRRNQFWVKVQRG (PNC-28), which “time to cell death” value (MiaPaCa-2 cells [1]; 20 μmol/ml) is on record?
Answer: Its value is 1 week.

Question: What about the cell death (MiaPaCa-2 cells [1]; 20 μmol/ml, 48 h, FIG. 2) of the same molecule?
Answer: The cell death was “roughly 35%”.

Question: And the “time to similar (near total) cell death” value (MiaPaCa-2 cells [1]; 40 μmol/ml)?
Answer: Its value is 4 days.

Question: And the cell morphology (MiaPaCa-2 cells [1]; 75 μmol/ml, 24 h, FIG. 1B)?
Answer: Its cell morphology is “appear necrotic”.

Question: What about the “cell death as measured by trypan blue dye uptake” value (MiaPaCa-2 cells [1]; 75 μmol/ml, 48 h) of the same molecule?
Answer: Its value is ~100%.

Question: And the “time to near total cell death” value (MiaPaCa-2 cells [1]; 80 μmol/ml)?
Answer: Its value is 48 h.

Question: What about the cell death (MiaPaCa-2 cells [1]; 80 μmol/ml, 48 h, FIG. 2) of the same molecule?
Answer: The cell death was “over 80%”.

Question: What about the cell death (MiaPaCa-2 cells [1]; doses between 20 and 75 μmol/ml, time decreasing with dose) of the same molecule?
Answer: The cell death was ~100%.

Question: What about the LDH activity (MiaPaCa-2 cells [2]; 25 μmol/ml, 24 h, FIG. 4A) of the same molecule?
Answer: Its LDH activity is “almost to the same extent as cells that were lysed with lysis buffer; also recorded: high levels of LDH”.

Question: And the LDH (MiaPaCa-2 cells [2]; 25 umol/ml, 24 h, FIG. 4D)?
Answer: The LDH was “approximately 0.235 OD”.

Question: And the LDH (MiaPaCa-2 cells [2]; 50 umol/ml, 24 h, FIG. 4D)?
Answer: The LDH was “approximately 0.44 OD”.

Question: What about the LDH (MiaPaCa-2 cells [2]; 75 umol/ml, 24 h, FIG. 4D) of the same molecule?
Answer: The LDH was “approximately 0.35 OD”.

Question: What about the LDH release (MiaPaCa-2 cells [2]; [6]) of the same molecule?
Answer: Its LDH release is “early release of LDH”.

Question: And the caspase level (MiaPaCa-2 cells [3]; 25 μmol/ml, 24 h, FIG. 4C)?
Answer: Its caspase level is “only baseline levels”.

Question: What about the caspase (MiaPaCa-2 cells [3]; 25 umol/ml, 24 h, FIG. 4D) of the same molecule?
Answer: The caspase was “approximately 0.03”.

Question: And the caspase (MiaPaCa-2 cells [3]; 50 umol/ml, 24 h, FIG. 4D)?
Answer: Its caspase is “approximately 0.02”.

Question: And the caspase (MiaPaCa-2 cells [3]; 75 umol/ml, 24 h, FIG. 4D)?
Answer: Its caspase is “approximately 0.015”.

Question: What about the caspase level (MiaPaCa-2 cells [3]; [6]) of the same molecule?
Answer: The caspase level was “only background levels of caspase”.

Question: And the “plasma membrane integrity in electron micrographs” value (MiaPaCa-2 cells [4])?
Answer: The value was “exhibit lysis of their plasma membranes”.

Question: And the “levels of p53, waf^p21 and caspase activity” value (MiaPaCa-2 cells [5])?
Answer: Its value is “not observed”.

Question: And the “mode of tumor cell death” value (cancer cells)?
Answer: The value was “induced tumor cell necrosis, not apoptosis”.

Question: With “PPLSQETFSDLWKLLKKWKMRRNQFWVKVQRG (PNC-27)” as the molecule, how does the “mode of tumor cell death” value (cancer cells) read?
Answer: Its value is “induced tumor cell necrosis, not apoptosis”.

Question: Which “caspase 3 activity, positive control” value (MiaPaCa-2 cells [3]; 10 ng/ml, 24 h, FIG. 4C condition 1) does the source give for TNF-α [reference compound] here?
Answer: The value was “Maximal caspase release”.

Question: With `CC[C@H](C)[C@H](NC(=O)[C@H](CCCNC(=N)N)NC(=O)[C@H](CCCCN)NC(=O)CNC(=O)[C@@H](NC(=O)[C@H](CO)NC(=O)[C@H](Cc1ccccc1)NC(=O)[C@@H]1CCCN1C(=O)[C@@H](N)CCSC)[C@@H](C)O)C(=O)N[C@@H](CCSC)C(=O)N[C@@H](CC(C)C)C(=O)NCC(=O)N[C@@H](CCC(=O)O)C(=O)N[C@@H](CCCCN)C(=O)N[C@@H](CCCCN)C(=O)N[C@@H](Cc1c[nH]c2ccccc12)C(=O)N[C@@H](CCCCN)C(=O)N[C@@H](CCSC)C(=O)N[C@@H](CCCNC(=N)N)C(=O)N[C@@H](CCCNC(=N)N)C(=O)N[C@@H](CC(N)=O)C(=O)N[C@@H](CCC(N)=O)C(=O)N[C@@H](Cc1ccccc1)C(=O)N[C@@H](Cc1c[nH]c2ccccc12)C(=O)N[C@H](C(=O)N[C@@H](CCCCN)C(=O)N[C@H](C(=O)N[C@@H](CCC(N)=O)C(=O)N[C@@H](CCCNC(=N)N)C(=O)NCC(=O)O)C(C)C)C(C)C` [PNC-29, reference compound] as the molecule, how does the “cytotoxicity, number of remaining cells versus untreated” value (MiaPaCa-2 cells [1]; 75 μmol/ml, 48 h, FIG. 3) read?
Answer: Its value is “no effect on cell growth”.
